According to patent publication US11299468B2, “Methods for producing 5-(halomethyl)furfural” (Origin Materials Operating, Inc., priority 2013, dated 2022):

Test: Partition coefficient screen of CMF between organic phase and acidic brine
Format: physicochemical
Protocol: The solvent system used in the methods and compositions described herein may also be selected based on the partition coefficient of the 5-(halomethyl)furfural in the reaction mixture. As used herein, “partition coefficient” refers to the ratio of molar concentration of 5-(halomethyl)furfural in the organic phase to 5-(halomethyl)furfural in the aqueous phase in the reaction mixture.
[…] […] A 1 mL sample was removed from each phase. The microwave vial was then resealed, and re-shaken.
The 1 mL samples were added to volumetric flasks, where the acidic brine solution was diluted with THF and an amount of 37% HCl (˜3 mL) sufficient to eliminate the formation of a biphase with THF. The organic phase sample was diluted with toluene. The dilutions were then put into 1 dram vials and saved.
Further sampling of each phase was repeated every […] for the duration of each 4-hour experiment resulting in a total of 6 samples per experiment. Throughout the course of the experiment the microwave vial was shaken every 20 minutes to promote contact between the two phases. The 6 samples of each experiment in this Example were then taken from the 1 dram vials and put into 1.5 ml vials and submitted to HPLC for CMF analysis.

[1] = No. 1, organic Toluene, aqueous HCl (11.66N), 25 °C
[2] = No. 2, organic Toluene, aqueous 1N H+ 11N Li+ 12N Cl−, 24.6 °C
[3] = No. 3, organic Toluene, aqueous 6N H+ 6N Li+ 12N Cl−, 25 °C
[4] = No. 4, organic Toluene, aqueous 2N H+ 10N Li+ 12N Cl−, 29.7 °C
[5] = No. 5, organic Toluene, aqueous 1N H+ 11N Li+ 12N Cl−, 50 °C
[6] = No. 6, organic Toluene, aqueous 6N H+ 6N Li+ 12N Cl−, 50 °C
[7] = No. 7, organic Toluene, aqueous 2N H+ 10N Li+ 12N Cl−, 50 °C
[8] = No. 8, organic Toluene, aqueous 2N H+ 4N Mg2+ 12N Cl−, 23.6 °C
[9] = No. 9, organic Toluene, aqueous 2N H+ 4M sodium triflate 2M Cl−, 27.1 °C
[10] = No. 10, organic Toluene, aqueous 2M H+ 10M Na+ 12M Cl−, 24.6 °C
[11] = No. 11, organic Toluene, aqueous 2M H+ 1:1 12M LiCl:saturated NaCl, 24.1 °C
[12] = No. 12, organic Toluene, aqueous 2M H+ saturated KCl, 24.2 °C
[13] = No. 13, organic Toluene, aqueous 2M H+ 1:1 12M LiCl:saturated KCl, 24.8 °C
[14] = No. 14, organic Toluene, aqueous 2M H+ 1:2 12M LiCl:saturated NaCl, 24.5 °C
[15] = No. 15, organic Toluene, aqueous 2M H+ 1:2 12M LiCl:saturated KCl, 24.5 °C
[16] = No. 16, organic Toluene, aqueous 2M H+ 1:1 12M LiCl:saturated MgCl2, 22 °C
[17] = No. 17, organic Toluene, aqueous 2M H+ 10M Zn2+ 24M Cl−, 22 °C
[18] = No. 18, organic Toluene, aqueous 2M H+ 4.13M Ca2+ 12.2M Cl−, 27 °C
[19] = No. 19, organic Toluene, aqueous 2M H+ 6M Ca2+ 14M Cl−, 27 °C
[20] = No. 20, organic Toluene, aqueous 2M H+ 4.13M Ca2+ 12.2M Cl−, 50 °C
[21] = No. 21, organic Toluene, aqueous 2M H+ 6M Ca2+ 14M Cl−, 50 °C
[22] = No. 22, organic Toluene, aqueous 2M H+ Satd. Rb, 24.5 °C
[23] = No. 23, organic Toluene, aqueous 2M H+ Satd. Cs, 24.5 °C
[24] = No. 24, organic Cepsa ® 550Q, aqueous 6N H+ 6N Li+ 12N Cl−, 23.3 °C
[25] = No. 25, organic Cepsa ® 550Q, aqueous 1N H+ 11N Li+ 12N Cl−, 24.5 °C
[26] = No. 26, organic Cepsa ® 900Q, aqueous 1N H+ 11N Li+ 12N Cl−, 22.8 °C
[27] = No. 27, organic Cepsa ® 900Q, aqueous 6N H+ 6N Li+ 12N Cl−, 26.5 °C
[28] = No. 28, organic Santovac ®-5, aqueous 1N H+ 11N Li+ 12N Cl−, 27.2 °C
[29] = No. 29, organic Santovac ®-5, aqueous 6N H+ 6N Li+ 12N Cl−, 23.7 °C
[30] = No. 30, organic Santovac ®-5, aqueous 2N H+ 10N Li+ 12N Cl−, 28.1 °C
[31] = No. 31, organic Santovac ®-5, aqueous 1N H+ 11N Li+ 12N Cl−, 50 °C
[32] = No. 32, organic Santovac ®-5, aqueous 6N H+ 6N Li+ 12N Cl−, 50 °C
[33] = No. 33, organic Santovac ®-5, aqueous 2N H+ 10N Li+ 12N Cl−, 50 °C
[34] = No. 34, organic Dichloroethane (4 mL), aqueous 37% HCl (4 mL), 28.5 °C
[35] = No. 35, organic Dichloroethane (17.6 mL), aqueous 37% HCl (4 mL), 28.5 °C

- Normalized ratio (organic:aqueous) [1]: 3.0
- log PC [1]: 0.48
- Normalized ratio (organic:aqueous) [2]: 144.0
- log PC [2]: 2.16
- Normalized ratio (organic:aqueous) [3]: 17.4
- log PC [3]: 1.24
- Normalized ratio (organic:aqueous) [4]: 72.9
- log PC [4]: 1.86
- Normalized ratio (organic:aqueous) [5]: 110.0
- log PC [5]: 2.04
- Normalized ratio (organic:aqueous) [6]: 18.9
- log PC [6]: 1.27
- Normalized ratio (organic:aqueous) [7]: 79.6
- log PC [7]: 1.9
- Normalized ratio (organic:aqueous) [8]: 61.3
- log PC [8]: 1.78
- Normalized ratio (organic:aqueous) [9]: 8.3
- log PC [9]: 0.92
- Normalized ratio (organic:aqueous) [10]: 66.1
- log PC [10]: 1.82
- Normalized ratio (organic:aqueous) [11]: 90.1
- log PC [11]: 1.95
- Normalized ratio (organic:aqueous) [12]: 222.0
- log PC [12]: 2.34
- Normalized ratio (organic:aqueous) [13]: 71.1
- log PC [13]: 1.85
- Normalized ratio (organic:aqueous) [14]: 100.0
- log PC [14]: 2
- Normalized ratio (organic:aqueous) [15]: 119.0
- log PC [15]: 2.07
- Normalized ratio (organic:aqueous) [16]: 68.0
- log PC [16]: 1.83
- Normalized ratio (organic:aqueous) [17]: 0.6
- log PC [17]: −0.23
- Normalized ratio (organic:aqueous) [18]: 73.8
- log PC [18]: 1.87
- Normalized ratio (organic:aqueous) [19]: 80.0
- log PC [19]: 1.9
- Normalized ratio (organic:aqueous) [20]: 82.6
- log PC [20]: 1.91
- Normalized ratio (organic:aqueous) [21]: 141.7
- log PC [21]: 2.15
- Normalized ratio (organic:aqueous) [22]: 74.7
- log PC [22]: 1.87
- Normalized ratio (organic:aqueous) [23]: 41.3
- log PC [23]: 1.61
- Normalized ratio (organic:aqueous) [24]: 1.6
- log PC [24]: 1.61
- Normalized ratio (organic:aqueous) [25]: 20.3
- log PC [25]: 1.31
- Normalized ratio (organic:aqueous) [26]: 10.2
- log PC [26]: 1.01
- Normalized ratio (organic:aqueous) [27]: 0.9
- log PC [27]: −0.04
- Normalized ratio (organic:aqueous) [28]: 60.7
- log PC [28]: 1.78
- Normalized ratio (organic:aqueous) [29]: 6.6
- log PC [29]: 0.82
- Normalized ratio (organic:aqueous) [30]: 43.7
- log PC [30]: 1.64
- Normalized ratio (organic:aqueous) [31]: 65.6
- log PC [31]: 1.81
- Normalized ratio (organic:aqueous) [32]: 10.3
- log PC [32]: 1.01
- Normalized ratio (organic:aqueous) [33]: 55.9
- log PC [33]: 1.74
- Normalized ratio (organic:aqueous) [34]: 10.9
- log PC [34]: 1.03
- Normalized ratio (organic:aqueous) [35]: 11.6
- log PC [35]: 1.7
SMILES: O=Cc1ccc(CCl)o1 [CMF, 5-(chloromethyl)furfural]
